Measurements: US10975056B2 (GlaxoSmithKline Intellectual Property Development Limited, priority 2016, dated 2021)
Several values for one entry are separate records, joined by “and”; a condition that tells them apart may be missing. Equal values may be shown once. Where a name gives a salt, the structure may show the parent alone. Read-outs that look alike come from different tables or passages of the source.

Experiments:
[1] = target: DNMT1 (Homo sapiens, UniProt P26358); assay: DNMT1 biochemical activity, breaklight assay and/or SPA assay
DNMT1, sequence (P26358 whole entry, looked up): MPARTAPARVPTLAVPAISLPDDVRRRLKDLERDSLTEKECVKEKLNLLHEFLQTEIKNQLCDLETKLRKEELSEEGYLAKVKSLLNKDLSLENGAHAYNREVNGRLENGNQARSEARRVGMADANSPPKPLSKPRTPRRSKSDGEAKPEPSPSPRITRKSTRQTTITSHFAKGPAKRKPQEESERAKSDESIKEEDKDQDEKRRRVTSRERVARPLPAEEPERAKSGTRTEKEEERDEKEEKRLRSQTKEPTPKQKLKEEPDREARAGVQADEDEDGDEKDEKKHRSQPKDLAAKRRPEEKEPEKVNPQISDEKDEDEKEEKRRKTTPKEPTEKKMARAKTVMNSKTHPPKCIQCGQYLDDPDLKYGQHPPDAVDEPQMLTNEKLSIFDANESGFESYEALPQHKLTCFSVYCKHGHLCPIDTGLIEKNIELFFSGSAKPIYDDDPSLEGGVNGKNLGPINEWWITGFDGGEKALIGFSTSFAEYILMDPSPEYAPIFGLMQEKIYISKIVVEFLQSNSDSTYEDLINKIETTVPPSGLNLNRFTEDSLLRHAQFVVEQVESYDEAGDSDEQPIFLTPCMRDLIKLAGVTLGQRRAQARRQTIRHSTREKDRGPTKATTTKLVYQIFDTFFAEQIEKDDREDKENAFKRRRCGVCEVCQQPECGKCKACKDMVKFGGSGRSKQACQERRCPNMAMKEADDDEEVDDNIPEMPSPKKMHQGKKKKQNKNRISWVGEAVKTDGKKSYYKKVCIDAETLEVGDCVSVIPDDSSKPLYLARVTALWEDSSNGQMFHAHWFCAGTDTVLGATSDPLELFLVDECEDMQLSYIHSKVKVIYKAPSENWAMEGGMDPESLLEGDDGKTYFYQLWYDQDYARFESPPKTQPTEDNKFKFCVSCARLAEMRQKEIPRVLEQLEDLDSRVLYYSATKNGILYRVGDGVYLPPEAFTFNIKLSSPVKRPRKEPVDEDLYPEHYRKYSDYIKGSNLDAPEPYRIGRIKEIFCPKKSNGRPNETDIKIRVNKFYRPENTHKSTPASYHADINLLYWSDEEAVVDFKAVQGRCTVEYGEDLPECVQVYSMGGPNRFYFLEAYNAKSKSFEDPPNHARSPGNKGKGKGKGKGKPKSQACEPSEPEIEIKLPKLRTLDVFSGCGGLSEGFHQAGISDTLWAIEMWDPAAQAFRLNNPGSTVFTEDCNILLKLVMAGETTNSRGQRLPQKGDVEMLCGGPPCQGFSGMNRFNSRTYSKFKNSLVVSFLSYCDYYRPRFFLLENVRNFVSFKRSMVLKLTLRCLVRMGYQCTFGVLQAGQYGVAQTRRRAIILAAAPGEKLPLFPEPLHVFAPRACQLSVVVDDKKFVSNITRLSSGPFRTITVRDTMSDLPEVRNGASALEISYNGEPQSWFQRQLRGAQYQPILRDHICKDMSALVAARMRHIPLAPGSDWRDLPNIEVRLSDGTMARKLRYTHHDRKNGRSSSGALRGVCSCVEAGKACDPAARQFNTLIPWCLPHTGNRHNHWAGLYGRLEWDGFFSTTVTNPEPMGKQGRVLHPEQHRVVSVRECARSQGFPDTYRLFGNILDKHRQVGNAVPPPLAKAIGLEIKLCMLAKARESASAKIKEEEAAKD

[2] = system: erythroid progenitor cells (EPCs); assay: Fetal hemoglobin (HbF) ELISA in day 7 erythroid progenitor cells; type: cell-based, human; settings: Homo sapiens, Erythroid progenitor cell, HbF ELISA, day 7 EPCs, 5 days; read-out: EPC ELISA (pEC50 category) (converted);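 also: for fetal hemoglobin induction normalized to vehicle-treated cells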
Summary of the method: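 HbF induction was read by anti-HbF sandwich ELISA (HRP/TMB, OD450) on lysates and normalized to vehicle-treated cells. Cells were day 7 erythroid progenitors derived from human bone marrow CD34+ cells, seeded at 1,000/well with 3 U/mL rhEPO. Compound was given for 5 days at 37 °C at final concentrations […].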

[3] = binned activity in either the breaklight or the SPA assay, read-out: DNMT1 BioChemical (pIC50 category) (converted)
[4] = binned activity in either the breaklight or the SPA assay
[5] = breaklight assay and/or SPA assay, repeated experimental runs, read-out: average pIC50 against DNMT1 (converted)

| SMILES | IC50 [1, 3] | EC50 [2] | DNMT1 BioChemical (pIC50 category) [1, 4] | IC50 [1, 5] |
| --- | --- | --- | --- | --- |
| CCc1c(C#N)c(SCC(N)=O)nc(SC(C(N)=O)c2ccccc2)c1C#N (centres unmarked) [Example 235, 2-((6-((2-Amino-2-oxoethyl)thio)-3,5-dicyano-4-ethylpyridin-2-yl)thio)-2-phenylacetamide] | 0.316 to 1 µM | 0.316 to 1 µM | – | – |
| CCc1c(C#N)c(SC(C(N)=O)c2ccccc2)nc(N2Cc3cn[nH]c3C2)c1C#N (centres unmarked) [Example 236, 2-((3,5-Dicyano-4-ethyl-6-(pyrrolo[3,4-c]pyrazol-5(1H,4H,6H)-yl)pyridin-2-yl)thio)-2-phenylacetamide] | – | > 31.6 µM | D (Category D: ≥6.5) | – |
| CCc1c(C#N)c(SC(C(N)=O)c2ccc(OC)cn2)nc(N(C)C)c1C#N (centres unmarked) [Example 237, 2-((3,5-Dicyano-6-(dimethylamino)-4-ethylpyridin-2-yl)thio)-2-(5-methoxypyridin-2-yl)acetamide] | 0.316 to 1 µM | 1 to 31.6 µM | – | 0.316 to 1 µM and 0.398 µM |
| CCc1c(C#N)c(SC(C(N)=O)c2ccc(C)cn2)nc(N(C)C)c1C#N (centres unmarked) [Example 238, 2-((3,5-Dicyano-6-(dimethylamino)-4-ethylpyridin-2-yl)thio)-2-(5-methylpyridin-2-yl)acetamide] | – | 1 to 31.6 µM | D (Category D: ≥6.5) | – |
| CCc1c(C#N)c(SC(C(N)=O)c2ccnc(F)c2)nc(N2CCCN(C)CC2)c1C#N (centres unmarked) [Example 239, 2-((3,5-Dicyano-4-ethyl-6-(4-methyl-1,4-diazepan-1-yl)pyridin-2-yl)thio)-2-(2-fluoropyridin-4-yl)acetamide] | 1 to 31.6 µM | > 31.6 µM | – | – |
| CCc1c(C#N)c(SC(C(N)=O)c2ccccc2)nc(N2CCC(O)(CO)CC2)c1C#N (centres unmarked) [Example 240, 2-((3,5-Dicyano-4-ethyl-6-(4-hydroxy-4-(hydroxymethyl)piperidin-1-yl)pyridin-2-yl)thio)-2-phenylacetamide] | 0.316 to 1 µM | 1 to 31.6 µM | – | – |
| CCc1c(C#N)c(SC(C(N)=O)c2ccccc2)nc(N2CCC3(CC2)COC(=O)N3)c1C#N (centres unmarked) [Example 241, 2-((3,5-Dicyano-4-ethyl-6-(2-oxo-3-oxa-1,8-diazaspiro[4.5]decan-8-yl)pyridin-2-yl)thio)-2-phenylacetamide] | 0.316 to 1 µM | 1 to 31.6 µM | – | – |
| CCc1c(C#N)c(SC(C(N)=O)c2ccccc2)nc(N2CCC(N)(CO)CC2)c1C#N (centres unmarked) [Example 242, 2-((6-(4-Amino-4-(hydroxymethyl)piperidin-1-yl)-3,5-dicyano-4-ethylpyridin-2-yl)thio)-2-phenylacetamide, Trifluoroacetic Acid Salt] | – | < 0.316 µM | D (Category D: ≥6.5) | – |
| CCc1c(C#N)c(SC(C(N)=O)c2ccccc2)nc(N2CCC(O)(CN)CC2)c1C#N (centres unmarked) [Example 243, 2-((6-(4-(Aminomethyl)-4-hydroxypiperidin-1-yl)-3,5-dicyano-4-ethylpyridin-2-yl)thio)-2-phenylacetamide, Trifluoroacetic Acid Salt] | – | 0.316 to 1 µM | D (Category D: ≥6.5) | – |
| CCc1c(C#N)c(SC(C(N)=O)c2cccc(C(=O)c3ccccc3)c2)nc(N2CCCN(CCO)CC2)c1C#N (centres unmarked) [Example 244, 2-(3-Benzoylphenyl)-2-((3,5-dicyano-4-ethyl-6-(4-(2-hydroxyethyl)-1,4-diazepan-1-yl)pyridin-2-yl)thio)acetamide] | 0.316 to 1 µM | < 0.316 µM | – | – |
| CCc1c(C#N)c(SC(C(N)=O)c2ccc(C(=O)c3ccccc3)cc2)nc(N2CCCN(CCO)CC2)c1C#N (centres unmarked) [Example 245, 2-(4-Benzoylphenyl)-2-((3,5-dicyano-4-ethyl-6-(4-(2-hydroxyethyl)-1,4-diazepan-1-yl)pyridin-2-yl)thio)acetamide] | 0.316 to 1 µM | 0.316 to 1 µM | – | – |
| CCc1c(C#N)c(SC(C(N)=O)c2ccnc(C)c2)nc(N2CCCN(C)CC2)c1C#N (centres unmarked) [Example 246, 2-((3,5-Dicyano-4-ethyl-6-(4-methyl-1,4-diazepan-1-yl)pyridin-2-yl)thio)-2-(2-methylpyridin-4-yl)acetamide] | 0.316 to 1 µM | > 31.6 µM | – | – |
| CCc1c(C#N)c(SC(C(N)=O)c2cccc(N3CCCC3)c2)nc(N2CCCN(C)CC2)c1C#N (centres unmarked) [Example 247, 2-((3,5-Dicyano-4-ethyl-6-(4-methyl-1,4-diazepan-1-yl)pyridin-2-yl)thio)-2-(3-(pyrrolidin-1-yl)phenyl)acetamide] | 1 to 31.6 µM | 0.316 to 1 µM | – | ≥ 1 µM and 1.58 µM |
| CCc1c(C#N)c(SC(C(N)=O)c2ccncc2F)nc(N2CCCN(C)CC2)c1C#N (centres unmarked) [Example 248, 2-((3,5-Dicyano-4-ethyl-6-(4-methyl-1,4-diazepan-1-yl)pyridin-2-yl)thio)-2-(3-fluoropyridin-4-yl)acetamide] | 0.316 to 1 µM | > 31.6 µM | – | – |

Second part, the compound after the results:

| IC50 [1, 3] | EC50 [2] | DNMT1 BioChemical (pIC50 category) [1, 4] | IC50 [1, 5] | SMILES |
| --- | --- | --- | --- | --- |
| 1 to 31.6 µM | > 31.6 µM | – | – | CCc1c(C#N)c(SC(C(N)=O)c2cc(F)ncc2F)nc(N2CCCN(C)CC2)c1C#N (centres unmarked) [Example 249, 2-((3,5-Dicyano-4-ethyl-6-(4-methyl-1,4-diazepan-1-yl)pyridin-2-yl)thio)-2-(2,5-difluoropyridin-4-yl)acetamide] |
| 0.316 to 1 µM | 1 to 31.6 µM | – | – | CCc1c(C#N)c(SC(C(N)=O)c2ccccc2)nc(N2CCC(N3C(=O)CNC3=O)CC2)c1C#N (centres unmarked) [Example 250, 2-((3,5-Dicyano-6-(4-(2,5-dioxoimidazolidin-1-yl)piperidin-1-yl)-4-ethylpyridin-2-yl)thio)-2-phenylacetamide] |
| 1 to 31.6 µM | 1 to 31.6 µM | – | – | CCc1c(C#N)c(SC(C(N)=O)c2ccccc2)nc(N2CCC(N)(C(N)=O)CC2)c1C#N (centres unmarked) [Example 251] |
| – | < 0.316 µM | D (Category D: ≥6.5) | – | CCc1c(C#N)c(SC(C(N)=O)c2ccccc2)nc(N2CCC(N3C(=O)CCC3=O)CC2)c1C#N (centres unmarked) [Example 252, 2-((3,5-Dicyano-6-(4-(2,5-dioxopyrrolidin-1-yl)piperidin-1-yl)-4-ethylpyridin-2-yl)thio)-2-phenylacetamide] |
| 0.316 to 1 µM | 1 to 31.6 µM | – | – | CCc1c(C#N)c(SC(C(N)=O)c2ccccc2)nc(N2CCC3(CC2)CNC(=O)O3)c1C#N (centres unmarked) [Example 256, 2-((3,5-Dicyano-4-ethyl6-(2-oxo-1-oxa-3,8-diazaspiro[4.5]decan-8-yl)pyridin-2-yl)thio)-2-phenylacetamide] |
| 0.316 to 1 µM | 1 to 31.6 µM | – | – | CCc1c(C#N)c(SC(C(N)=O)c2ccccc2)nc(N2CCC(O)(C(N)=O)CC2)c1C#N (centres unmarked) [Example 258, 1-(6-((2-Amino-2-oxo-1-phenylethyl)thio)-3,5-dicyano-4-ethylpyridin-2-yl)-4-hydroxy piperidine-4-carboxamide] |
| – | 0.316 to 1 µM | D (Category D: ≥6.5) | – | CCc1c(C#N)c(SC(C(N)=O)c2ccccc2)nc(N2CC(OC(N)=O)C2)c1C#N (centres unmarked) [Example 259, 1-(6-((2-Amino-2-oxo-1-phenylethylthio-3,5-dicyano-4-ethylpyridin-2-yl)azetidin-3-yl carbamate] |
| 0.316 to 1 µM | 1 to 31.6 µM | – | – | CCc1c(C#N)c(SC(C(N)=O)c2ccccc2)nc(N2CCC(N3C(=O)COC3=O)CC2)c1C#N (centres unmarked) [Example 260, 2-((3,5-Dicyano-6-(4-(2,4-dioxooxazolidin-3-yl)piperidin-1-yl)-4-ethylpyridin-2-yl)thio)-2-phenylacetamide] |
| 0.316 to 1 µM | 1 to 31.6 µM | – | – | CCc1c(C#N)c(SC(C(N)=O)c2ccccc2)nc(N(C)CC(C)(O)C(N)=O)c1C#N (centres unmarked) [Example 261, 3-((6-((2-Amino-2-oxo-1-phenylethyl)thio)-3,5-dicyano-4-ethylpyridin-2-yl)(methyl)amino)-2-hydroxy-2-methylpropanamide] |
| – | 1 to 31.6 µM | D (Category D: ≥6.5) | – | CCc1c(C#N)c(SC(C(N)=O)c2ccccc2)nc(N2CC(CO)C2)c1C#N (centres unmarked) [Example 262, 2-((3,5-Dicyano-4-ethyl-6-(3-(hydroxymethyl)azetidin-1-yl)pyridin-2-yl)thio)-2-phenylacetamide] |
| 0.316 to 1 µM | 0.316 to 1 µM | – | – | CCc1c(C#N)c(SC(C(N)=O)c2ccsc2)nc(N2CCNCC2)c1C#N (centres unmarked) [Example 263, 2-(3,5-Dicyano-4-ethyl-6-(piperazin-1-yl)pyridin-2-ylthio)-2-(thiophen-3-yl)acetamide] |
| 1 to 31.6 µM | > 31.6 µM | – | – | CCc1c(C#N)c(SCc2ccc(CNC(C)=O)cc2)nc(N2CCC(OCCOC(=O)[C@@H](N)C(C)C)CC2)c1C#N [Example 264, (S)-2-((1-(6-((4-(Acetamidomethyl)benzyl)thio)-3,5-dicyano-4-ethylpyridin-2-yl)piperidin-4-yl)oxy)ethyl 2-amino-3-methylbutanoate] |
| 1 to 31.6 µM | 0.316 to 1 µM | – | ≥ 1 µM and 2 µM | CCc1c(C#N)c(SC(C(N)=O)c2cncc(C)c2)nc(N2CCCN(C)CC2)c1C#N (centres unmarked) [Example 266] |
| 1 to 31.6 µM | 1 to 31.6 µM | – | – | CCc1c(C#N)c(SCc2ccc(CNC(C)=O)cc2)nc(N(C)CCOC(=O)[C@@H](N)C(C)C)c1C#N [Example 267] |
| 1 to 31.6 µM | 1 to 31.6 µM | – | – | CCc1c(C#N)c(SCc2ccc(CNC(=O)CN)cc2)nc(N(C)C)c1C#N [Example 268, 2-Amino-N-(4-(((3,5-dicyano-6-(dimethylamino)-4-ethylpyridin-2-yl)thio)methyl)benzyl)acetamide] |
| 1 to 31.6 µM | 1 to 31.6 µM | – | – | CCc1c(C#N)c(SCc2ccc(CN3CCCC3=O)cc2)nc(N2CCCN(C)CC2)c1C#N [Example 269, 4-Ethyl-2-(4-methyl-1,4-diazepan-1-yl)-6-((4-((2-oxopyrrolidin-1-yl)methyl)benzyl)thio)pyridine-3,5-dicarbonitrile] |
| – | 1 to 31.6 µM | D (Category D: ≥6.5) | – | CCc1c(C#N)c(SC(C(N)=O)c2ccccc2)nc(N2CCC(N3CCC(N)C3=O)CC2)c1C#N (centres unmarked) [Example 270] |
